“And” between values parts separate entries of the source, which are not always exact repeats. Equal entries are not always repeated.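 Each compound was tested at five concentrations against cells in 96-well plates for 48 hours. GI50: concentration for 50% inhibition of growth. TGI: concentration producing complete growth inhibition.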
Experiments:
Experiment in all cases: DTP human tumour cell line panel, 48 h
[1] = tested on: MALME-3M melanoma
[2] = tested on: BT-549 breast
[3] = tested on: SR leukemia
[4] = tested on: RPMI-8226 leukemia
[5] = tested on: PC-3 prostate
[6] = tested on: HT29 colon
[7] = tested on: UACC-62 melanoma
[8] = tested on: 786-0 renal
[9] = tested on: HCT-116 colon
[10] = tested on: SNB-19 CNS

| SMILES | GI50 [1] | TGI [1] | TGI [2] | TGI [3] | GI50 [4] | TGI [4] | TGI [5] [µM] | GI50 [6] | TGI [6] | GI50 [7] | TGI [7] | GI50 [8] | TGI [8] | GI50 [9] | TGI [9] | GI50 [10] | TGI [10] | GI50 [2] | GI50 [3] | GI50 [5] |
| --- | --- | --- | --- | --- | --- | --- | --- | --- | --- | --- | --- | --- | --- | --- | --- | --- | --- | --- | --- | --- |
| NC(=S)N/N=C/c1ccc(O)cn1 | 31 µM and 13.4 µM | 113 µM and 138 µM | > 670 µM | > 323 µM | 22.3 µM and 6.64 µM | > 1500 µM and 662 µM | > 1500 | 37.9 µM | > 929 µM | 2.83 µM and 3.13 µM and 1.83 µM | 10.7 µM and 13.1 µM and 37.3 µM | 9.37 µM and 2.96 µM | 46 µM and > 408 µM | 13.7 µM and 6.53 µM | > 1500 µM and 369 µM | 29.2 µM and 8.2 µM | 1020 µM and > 1360 µM |  |  |  |
| CC(=O)OCc1ccc(O)c(C=O)c1 |  | > 100 µM | > 100 µM | > 100 µM |  | > 100 µM | > 100 |  | > 100 µM |  | > 100 µM |  | > 100 µM |  | > 100 µM |  | > 100 µM |  |  |  |
| O=C(NCCN1CCC(O)CC1)c1cc2c(o1)C(=O)c1ccccc1C2=O | 0.0272 µM | 0.0885 µM | 0.326 µM | 20.5 µM | 1.58 µM | 4.72 µM | 2.39 | 0.296 µM | 3.43 µM | 0.164 µM | 0.308 µM | 1.44 µM | 2.96 µM | 0.301 µM | 1.05 µM | 0.27 µM | 0.956 µM | 0.17 µM | 0.396 µM | 0.294 µM |
| N#C/C(=C\Nc1ccccn1)C(=O)c1ccco1 |  | > 100 µM | > 100 µM | > 100 µM |  | > 100 µM | > 100 |  | > 100 µM |  | > 100 µM |  | > 100 µM |  | > 100 µM |  | > 100 µM |  |  |  |
| Fc1cccc(CSc2ncnc3c2ncn3C2CCCS2)c1 (stereo not drawn) |  | 49.3 µM | 79.5 µM | 34 µM |  | 52.1 µM | > 100 |  | 32.7 µM |  | 28.8 µM |  | 51.5 µM |  | 26.3 µM |  | > 100 µM |  |  |  |
| Oc1ccc2ccccc2c1C1NN=C(c2ccccc2)S1 (stereo not drawn) | 1.56 µM | 21 µM | 28.9 µM | > 100 µM | 0.237 µM | > 100 µM | > 100 | 0.724 µM | 40 µM | 0.362 µM | 6.3 µM | 0.424 µM | > 34.6 µM | 0.408 µM | > 34.4 µM | 0.683 µM | > 100 µM | 0.858 µM | 0.473 µM | 0.645 µM |
| O=C(O)c1ccc([S-])cc1.[Au+].c1ccc(CN2[CH-]N(Cc3ccccc3)C(c3ccccc3)=C2c2ccccc2)cc1 | 0.249 µM | 0.797 µM | 1.42 µM | 2.76 µM | 0.323 µM | 2 µM | 1.44 | 0.434 µM | 1.58 µM | 0.319 µM | 1.4 µM | 0.376 µM | 1.59 µM | 0.301 µM | 1.26 µM |  |  | 0.318 µM | 0.429 µM | 0.308 µM |
| CC(=O)OC1CC[C@@]2(C)C(CC[C@]3(C)C2CC=C2[C@@H]4CC(C)(C)CCC4(C)CCC23C)[C@@]1(C)C(=O)O (stereo partly drawn) |  | 47.1 µM | 50.1 µM | > 78.3 µM |  | 58.1 µM | 23.1 |  | 38.9 µM |  | 36.6 µM |  | 45.9 µM |  | 46.9 µM |  | 47.3 µM |  |  |  |
| c1ccc(Nn2c(CCCCCCCCc3nnc(COc4ccccc4)n3Nc3ccccc3)nnc2COc2ccccc2)cc1 | 27.5 µM and 25.7 µM | > 300 µM | > 300 µM | > 300 µM |  | > 300 µM | > 300 | 41.9 µM | > 300 µM | 1.28 µM | > 40.8 µM and 68 µM | 29 µM and 36.3 µM | > 300 µM | 51.7 µM | > 300 µM | 107 µM | > 300 µM | 33 µM | 8.48 µM and 7.33 µM | 8.32 µM and 23.9 µM |
| CN1CCC(C(=O)Nc2n[nH]c3nc(-c4ccc(O)cc4)c(Br)cc23)CC1 | 3.56 µM and 4.97 µM | 11.1 µM and 11.7 µM | 16.4 µM and 16.9 µM | > 25 µM | 9.78 µM and 24.4 µM | > 25 µM | > 22.2 | 4.11 µM and 5.33 µM | 12.1 µM and 16.1 µM | 2.85 µM and 3.83 µM | 6.87 µM and 8.81 µM | 3.58 µM and 3.13 µM | 21.4 µM and 24.8 µM | 0.776 µM and 0.855 µM | > 25 µM | 1.12 µM and 2.97 µM | > 25 µM | 1.6 µM and 2.31 µM | 0.701 µM and 0.306 µM | 1.08 µM and 1.64 µM |
| Cn1c(/C=C(\C#N)c2cccc(C(F)(F)F)c2)nc2c(N3CCOCC3)nc(Cl)nc21 | 1.39 µM | 2.79 µM | 1.96 µM | 1.86 µM | 0.252 µM | 0.802 µM | 2.5 | 0.369 µM | 1.38 µM | 0.973 µM | 2.28 µM | 1.43 µM | 2.82 µM | 0.178 µM | 0.398 µM | 1.44 µM | 2.8 µM | 0.569 µM | 0.337 µM | 0.726 µM |
| Clc1cccc(N2CCN(CCN3CCc4c([nH]c5ccccc45)C3c3cccnc3)CC2)c1 (stereo not drawn) |  | > 100 µM | > 100 µM | > 100 µM |  | > 84.1 µM | > 100 |  | > 80.4 µM |  | > 100 µM |  | > 73.5 µM |  | > 91.3 µM |  | > 100 µM |  |  |  |
| c1cncc(-c2nc3ccccc3s2)c1 | > 100 µM | > 100 µM | > 100 µM | > 100 µM | 99.4 µM | > 100 µM | > 100 | > 100 µM | > 100 µM | > 100 µM | > 100 µM | > 100 µM | > 100 µM | > 100 µM | > 100 µM | > 100 µM | > 100 µM | 74 µM | > 100 µM | > 100 µM |
| N#Cc1ccc(C2C3=C(CCCC3=O)OC3=C2C(=O)c2ccccc2C3=O)cc1 (stereo not drawn) | 1.55 µM | 3.05 µM | 2.92 µM | > 100 µM | 2.3 µM | 7.12 µM | 12.2 | 2.91 µM | 8.04 µM | 2.06 µM | 4.02 µM | 1.87 µM | 3.76 µM | 0.48 µM | 2.11 µM | 4.35 µM | 16 µM | 1.56 µM | 3.47 µM | 2.17 µM |
| O=C(/C=C/c1cccc([N+](=O)[O-])c1)c1ccc(O)c(CN2CCN(c3cc4c(cc3F)c(=O)c(C(=O)O)cn4C3CC3)CC2)c1 | 1.93 µM | 4.25 µM | 3.31 µM | 53.2 µM | 0.418 µM | 2.82 µM | 5.37 | 2.44 µM | 6.25 µM | 1.66 µM | 3.45 µM | 1.57 µM | 3 µM | 0.494 µM | 1.81 µM | 1.34 µM | 2.79 µM | 1.54 µM | 0.398 µM | 1.85 µM |
| CCOC(=O)NC1=C(N2CC2)C(=O)C(NC(=O)OCC)=C(N2CC2)C1=O | 5.79 µM | 18 µM and 18.3 µM and 15.6 µM | 25 µM | 7.9 µM and 60.6 µM | 9.3 µM | 19 µM and 20.2 µM and 10.6 µM | 16.2 | 14.5 µM and 9.07 µM | 25 µM and 47.3 µM and 70.2 µM | 1.75 µM | 12 µM and 4.37 µM and 1.74 µM | 4.02 µM and 1.78 µM | 25 µM and 18.4 µM and 33.2 µM | 4.59 µM and 4.37 µM | 15.1 µM and 9.91 µM and 11.8 µM | 6.66 µM | 25 µM and 30.2 µM |  | 0.389 µM |  |
| COc1ccc(-c2nn(-c3cccc(Cl)c3)cc2-c2c(C#N)c(=O)n3[nH]c(-c4ccc(C)cc4)nc3c2C#N)cc1 | 2.16 µM | 9.12 µM | 14.8 µM | 10.1 µM | 4.57 µM | 33 µM | 9.26 | 1.49 µM | > 50 µM | 2.54 µM | 10.2 µM | 1.39 µM | 5.93 µM | 1.24 µM | 6 µM | 2.17 µM | 18.2 µM | 3.79 µM | 1.43 µM | 1.7 µM |
| Cc1cc([N+](=O)[O-])ccc1NS(=O)(=O)c1cc(Cl)ccc1Cl | 2.33 µM | 6.83 µM | 14 µM | 27.6 µM | 1.9 µM | 6.88 µM | 21.1 | 3.81 µM | > 100 µM | 1.29 µM | 17.9 µM | 3.03 µM | 22.6 µM | 2.85 µM | 11.9 µM | 3.4 µM | > 100 µM | 2.48 µM | 4.52 µM | 2.73 µM |
| O=c1oc(-c2ccccc2)cc2cccc(O)c12 | 69.4 µM | > 100 µM | 59.1 µM | > 100 µM | 34 µM | > 100 µM | > 100 | > 56.9 µM | > 100 µM | 24.5 µM | > 64.3 µM | 28.7 µM | > 76.9 µM | 19.8 µM | 45.2 µM | 30.6 µM | > 100 µM | 17.5 µM | 43.5 µM | 40.6 µM |
| Cc1ccc(C(=O)/C(=C\c2ccc([N+](=O)[O-])cc2)S(=O)Cc2ccc(F)cc2)cc1 (stereo not drawn) | 1.57 µM | 3.33 µM | 2.88 µM | 12.6 µM | 1.02 µM | 4.33 µM | 3.09 |  |  | 1.53 µM | 2.97 µM | 1.37 µM | 2.68 µM | 0.499 µM | 1.79 µM | 1.75 µM | 3.33 µM | 1.52 µM | 0.703 µM | 1.52 µM |
| O=C1C(Cl)=C(Nc2cccc(O)c2)C(=O)N1Cc1ccc(Cl)cc1 | 0.464 µM | 8.11 µM | 16.6 µM | 14.8 µM | 1.07 µM | > 100 µM | 86.9 |  |  | 1.27 µM | 4.79 µM | 1.63 µM | 28.1 µM | 3.66 µM | 25 µM | 2.64 µM | 23.5 µM | 2.54 µM | 0.358 µM | 3.45 µM |

From PubChem BioAssay (NCI)
